This note sets out measurements from patent US11332498B2, “Ligands for integrin αVβ8, synthesis and uses thereof” (Technische Universitat Munchen, priority 2017, dated 2022).

Experiment [1] concerns the target αvβ8 (Homo sapiens, UniProt P06756+P26012). The experiment in a line: solid-phase integrin binding assay, αvβ8. To be noted: for IC50: Table 1, coated LAP, soluble integrin, read-out: αvβ8 [nM] (integrin binding affinity).
In experiment [2] the target is αvβ6 (Homo sapiens, UniProt P06756+P18564). As to the kind of experiment: solid-phase integrin binding assay, αvβ6. The protocol: (§1) The activity and selectivity of integrin ligands were determined by a solid-phase binding assay according to the previously reported protocols using coated extracellular matrix proteins and soluble integrins: Fibronectin (Fn) for α5β1, latent activating protein (LAP) for αvβ6 and αvβ8, Vitronectin (Vn) for αvβ3 and αvβ5, Fibrinogen (Fbg) for αIIbβ3.
Sequence of αvβ6 (P06756 31-889 limits assumed): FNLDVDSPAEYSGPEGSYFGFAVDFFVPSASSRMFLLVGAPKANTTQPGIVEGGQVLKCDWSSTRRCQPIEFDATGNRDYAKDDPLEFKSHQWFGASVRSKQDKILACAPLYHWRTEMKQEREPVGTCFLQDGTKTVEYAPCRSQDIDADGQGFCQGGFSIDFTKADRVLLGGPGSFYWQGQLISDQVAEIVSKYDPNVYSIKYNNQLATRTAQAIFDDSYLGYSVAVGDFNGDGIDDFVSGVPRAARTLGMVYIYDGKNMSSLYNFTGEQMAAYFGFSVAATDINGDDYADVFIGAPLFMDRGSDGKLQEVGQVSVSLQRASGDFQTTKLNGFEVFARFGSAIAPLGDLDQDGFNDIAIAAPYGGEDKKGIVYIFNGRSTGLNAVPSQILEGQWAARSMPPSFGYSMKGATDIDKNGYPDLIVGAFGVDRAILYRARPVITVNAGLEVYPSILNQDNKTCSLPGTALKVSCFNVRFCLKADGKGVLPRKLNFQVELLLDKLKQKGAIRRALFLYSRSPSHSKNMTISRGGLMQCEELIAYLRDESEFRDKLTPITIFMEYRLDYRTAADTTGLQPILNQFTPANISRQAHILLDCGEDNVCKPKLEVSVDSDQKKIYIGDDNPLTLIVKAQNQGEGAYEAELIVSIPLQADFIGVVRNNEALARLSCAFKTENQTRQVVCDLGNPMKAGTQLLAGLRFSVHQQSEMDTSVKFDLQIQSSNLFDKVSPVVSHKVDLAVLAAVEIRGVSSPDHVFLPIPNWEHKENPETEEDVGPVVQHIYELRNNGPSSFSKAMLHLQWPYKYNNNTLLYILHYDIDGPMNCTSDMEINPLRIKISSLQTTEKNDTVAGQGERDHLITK
Sequence of αvβ6 (P06756 891-992 partner limits assumed): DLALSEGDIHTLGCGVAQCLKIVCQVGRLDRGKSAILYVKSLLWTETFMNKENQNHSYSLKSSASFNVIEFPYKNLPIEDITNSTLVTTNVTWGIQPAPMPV
Sequence of αvβ6 (P18564 22-707 limits assumed): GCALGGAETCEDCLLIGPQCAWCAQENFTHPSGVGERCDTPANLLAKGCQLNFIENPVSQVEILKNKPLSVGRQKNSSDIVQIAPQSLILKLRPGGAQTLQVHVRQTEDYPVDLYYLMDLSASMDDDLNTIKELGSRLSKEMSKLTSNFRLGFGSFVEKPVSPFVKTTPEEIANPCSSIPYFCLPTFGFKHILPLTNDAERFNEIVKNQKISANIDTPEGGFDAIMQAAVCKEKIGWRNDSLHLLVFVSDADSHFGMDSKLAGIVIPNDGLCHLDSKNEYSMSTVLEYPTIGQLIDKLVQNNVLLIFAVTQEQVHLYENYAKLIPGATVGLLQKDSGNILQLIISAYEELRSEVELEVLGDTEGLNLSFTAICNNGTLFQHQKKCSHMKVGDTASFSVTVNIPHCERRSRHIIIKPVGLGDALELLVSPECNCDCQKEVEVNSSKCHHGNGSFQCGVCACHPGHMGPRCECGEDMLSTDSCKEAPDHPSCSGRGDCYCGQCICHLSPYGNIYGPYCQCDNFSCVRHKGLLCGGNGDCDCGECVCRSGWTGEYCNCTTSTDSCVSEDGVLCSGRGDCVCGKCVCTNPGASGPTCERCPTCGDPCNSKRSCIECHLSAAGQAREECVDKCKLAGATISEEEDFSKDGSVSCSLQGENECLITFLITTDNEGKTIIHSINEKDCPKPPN

The target in experiment [3] is αvβ5 (Homo sapiens, UniProt P06756+P18084). As to the kind of experiment: solid-phase integrin binding assay, αvβ5. The protocol:
as §1

The target in experiment [4] is α5β1 (Homo sapiens, UniProt P05556+P08648). The experiment in a line: solid-phase integrin binding assay, α5β1. The protocol: as §1
For experiment [5], the target named is αvβ3 (Homo sapiens, UniProt P05106+P06756). As to the kind of experiment: solid-phase integrin binding assay, αvβ3. To be noted: Table 2; coated Vitronectin. The protocol:
as §1

Experiment [6] has as its target αIIbβ3 (Homo sapiens, UniProt P05106+P08514). The experiment in a line: solid-phase integrin binding assay, αIIbβ3. To be noted: Table 2; coated Fibrinogen. The procedure:
as §1

Where [7] appears, read: Table 1, coated LAP, soluble integrin, read-out: αvβ6 [nM] (integrin binding affinity).
[8] abbreviates: Table 3, BDPFL-labelled compounds and comparatives.

Like-named read-outs stand apart in the source and are kept apart here. Where a SMILES comes first, the peptide text is derived from it. Bridges are numbered along the chain shown (N, C = ends). Roman numbers before positions name the chains, in order. Side-chain parts run from the residue outwards. [ ]: non-standard residue; d: D form. The star is where a group is joined. BODIPY(FL) = CC1=CC(C)=[N+]2C1=Cc1ccc(CCC(=O)*)n1[B-]2(F)F; NMeK = CN[C@@H](CCCCN)C(=O)O; Ahx = NCCCCCC(=O)O

Sequence of αvβ5 (P06756 31-889 limits assumed): as the sequence (P06756 31-889 limits assumed) above
Sequence of αvβ5 (P06756 891-1048 partner limits assumed): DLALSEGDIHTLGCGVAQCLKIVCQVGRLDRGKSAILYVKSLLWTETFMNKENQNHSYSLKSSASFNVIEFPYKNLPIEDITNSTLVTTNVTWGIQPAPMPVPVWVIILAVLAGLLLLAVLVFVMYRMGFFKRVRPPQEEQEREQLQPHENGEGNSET
Sequence of αvβ5 (P18084 24-799): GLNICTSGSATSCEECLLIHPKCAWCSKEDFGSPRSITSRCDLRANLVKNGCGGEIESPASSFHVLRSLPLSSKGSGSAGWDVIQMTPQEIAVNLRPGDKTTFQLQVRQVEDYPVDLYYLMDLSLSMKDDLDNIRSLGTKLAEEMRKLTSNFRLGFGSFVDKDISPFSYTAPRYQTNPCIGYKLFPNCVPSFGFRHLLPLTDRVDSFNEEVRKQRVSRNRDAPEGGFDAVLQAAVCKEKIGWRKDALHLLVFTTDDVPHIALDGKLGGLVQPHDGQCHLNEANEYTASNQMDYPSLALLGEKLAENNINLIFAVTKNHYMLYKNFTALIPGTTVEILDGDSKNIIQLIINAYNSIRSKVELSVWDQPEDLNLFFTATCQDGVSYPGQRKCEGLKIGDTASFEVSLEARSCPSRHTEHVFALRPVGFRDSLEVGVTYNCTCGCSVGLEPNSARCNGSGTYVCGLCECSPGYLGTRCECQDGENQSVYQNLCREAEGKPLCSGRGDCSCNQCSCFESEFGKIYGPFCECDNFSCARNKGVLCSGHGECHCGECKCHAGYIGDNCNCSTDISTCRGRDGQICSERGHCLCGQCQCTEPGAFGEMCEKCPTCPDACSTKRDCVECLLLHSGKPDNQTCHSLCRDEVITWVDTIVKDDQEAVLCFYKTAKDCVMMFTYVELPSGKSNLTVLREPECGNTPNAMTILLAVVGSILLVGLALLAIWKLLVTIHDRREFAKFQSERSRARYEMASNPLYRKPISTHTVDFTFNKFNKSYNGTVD
Sequence of αvβ8 (P06756 31-889 limits assumed): as the sequence (P06756 31-889 limits assumed) above
Sequence of αvβ8 (P06756 891-992 partner limits assumed): as the sequence (P06756 891-992 partner limits assumed) above
Sequence of αvβ8 (P26012 43-684 limits assumed): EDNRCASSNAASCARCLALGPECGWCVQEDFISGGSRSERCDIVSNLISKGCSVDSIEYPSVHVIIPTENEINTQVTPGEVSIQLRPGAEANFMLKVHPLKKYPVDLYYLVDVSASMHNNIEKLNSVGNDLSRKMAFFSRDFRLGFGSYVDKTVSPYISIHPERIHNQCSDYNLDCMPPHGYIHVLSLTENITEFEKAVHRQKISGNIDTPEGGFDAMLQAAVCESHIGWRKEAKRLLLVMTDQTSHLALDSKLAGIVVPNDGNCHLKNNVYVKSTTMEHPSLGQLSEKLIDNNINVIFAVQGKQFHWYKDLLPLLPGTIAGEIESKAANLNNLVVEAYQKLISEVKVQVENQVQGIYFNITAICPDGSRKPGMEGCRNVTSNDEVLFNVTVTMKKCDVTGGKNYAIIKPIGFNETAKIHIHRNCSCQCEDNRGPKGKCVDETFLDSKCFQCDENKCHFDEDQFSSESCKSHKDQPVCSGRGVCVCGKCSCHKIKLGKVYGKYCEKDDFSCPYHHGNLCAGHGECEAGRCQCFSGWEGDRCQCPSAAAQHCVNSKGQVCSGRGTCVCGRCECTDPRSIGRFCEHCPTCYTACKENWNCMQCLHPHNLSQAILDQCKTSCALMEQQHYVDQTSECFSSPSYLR
Sequence of αvβ3 (P06756 31-889 limits assumed): as the sequence (P06756 31-889 limits assumed) above
Sequence of αvβ3 (P06756 891-992 partner limits assumed): as the sequence (P06756 891-992 partner limits assumed) above
Sequence of αvβ3 (P05106 27-718 limits assumed): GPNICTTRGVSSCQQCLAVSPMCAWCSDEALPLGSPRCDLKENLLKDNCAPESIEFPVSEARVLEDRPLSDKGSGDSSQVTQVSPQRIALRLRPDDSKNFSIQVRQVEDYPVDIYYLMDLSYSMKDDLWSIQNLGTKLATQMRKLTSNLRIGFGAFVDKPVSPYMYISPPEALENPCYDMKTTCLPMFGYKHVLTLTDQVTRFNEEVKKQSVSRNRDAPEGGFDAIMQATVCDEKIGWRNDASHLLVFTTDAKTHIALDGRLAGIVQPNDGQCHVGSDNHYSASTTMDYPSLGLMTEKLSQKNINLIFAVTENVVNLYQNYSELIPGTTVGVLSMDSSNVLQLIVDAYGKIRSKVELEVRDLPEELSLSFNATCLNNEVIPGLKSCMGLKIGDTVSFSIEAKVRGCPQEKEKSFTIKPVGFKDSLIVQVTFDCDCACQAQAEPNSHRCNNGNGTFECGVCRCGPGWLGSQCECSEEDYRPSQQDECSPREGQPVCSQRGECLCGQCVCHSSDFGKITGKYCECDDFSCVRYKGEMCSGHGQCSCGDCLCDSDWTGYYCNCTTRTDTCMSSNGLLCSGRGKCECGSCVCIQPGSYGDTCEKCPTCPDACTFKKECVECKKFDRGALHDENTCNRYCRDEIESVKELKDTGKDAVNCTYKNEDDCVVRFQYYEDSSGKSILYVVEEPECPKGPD

In the case of `CC(=O)NCCCC[C@H]1C(=O)NCC(=O)N[C@@H](CC(C)C)C(=O)N[C@@H](CCCNC(=N)N)C(=O)NCC(=O)N[C@@H](CC(=O)O)C(=O)N[C@@H](CC(C)C)C(=O)N2CCC[C@@H]2C(=O)N1C` [compound 9, Cyclo-(Arg-Gly-Asp-Leu-D-Pro-(N-Me-Lys(Ac))-Gly-Leu)] (cyclo(RGDL[dP][NMeK](Ac)GL)), the IC50 came out at 6 nM in experiment [1] and 201 nM in experiment [2] (setting [7]).
For `CC1=CC(C)=[N+]2C1=Cc1ccc(CCC(=O)NCCCCCC(=O)NCCCC[C@H]3C(=O)NCC(=O)N[C@@H](CC(C)C)C(=O)N[C@@H](CCCNC(=N)N)C(=O)NCC(=O)N[C@@H](CC(=O)O)C(=O)N[C@@H](CC(C)C)C(=O)N4CCC[C@@H]4C(=O)N3C)n1[B-]2(F)F` [Compound 9b, 9-Ahx-BDPFL] (cyclo(RGDL[dP][NMeK]([Ahx-BODIPY(FL)])GL)), the IC50 in experiment [3] (setting [8]) is greater than 10000 nM; in experiment [4] (setting [8]) it was greater than 1000 nM.
Take `CC(C)C[C@@H]1NC(=O)CNC(=O)[C@H](CCCCN)N(C)C(=O)[C@H]2CCCN2C(=O)[C@H](CC(C)C)NC(=O)[C@H](CC(=O)O)NC(=O)CNC(=O)[C@H](CCCNC(=N)N)NC1=O` [compound 8, Cyclo-(Arg-Gly-Asp-Leu-D-Pro-(N-Me-Lys)-Gly-Leu)] (cyclo(RGDL[dP][NMeK]GL)): the IC50 in experiment [1] was 6.5 nM; in experiment [2] (setting [7]), 201 nM; in experiment [5], greater than 1000 nM; in experiment [3] (Table 2, coated Vitronectin), greater than 1000 nM; in experiment [4] (Table 2, coated Fibronectin), greater than 1000 nM; in experiment [6] it was greater than 1000 nM.
For `CC(C)C[C@@H]1NC(=O)CNC(=O)[C@@H]2CCCN2C(=O)[C@H]2CCCN2C(=O)[C@H](CC(C)C)NC(=O)[C@H](CC(=O)O)NC(=O)CNC(=O)[C@H](CCCNC(=N)N)NC1=O` [compound 2, Cyclo-(Arg-Gly-Asp-Leu-D-Pro-Pro-Gly-Leu)] (cyclo(RGDL[dP]PGL)), the IC50 in experiment [1] was determined as 0.93 nM; in experiment [2] (setting [7]) it was 210 nM.
As to `Cc1cc(C)n2c1C=C1C=CC(CCC(=O)NCCCC[C@H]3C(=O)NCC(=O)N[C@@H](CC(C)C)C(=O)N[C@@H](CCCNC(=N)N)C(=O)NCC(=O)N[C@@H](CC(=O)O)C(=O)N[C@@H](CC(C)C)C(=O)N4CCC[C@@H]4C(=O)N3C)=[N+]1[B-]2(F)F` [Compound 9a, 9-BDPFL] (cyclo(RGDL[dP][NMeK](BODIPY(FL))GL)), the IC50 in experiment [3] (setting [8]) is greater than 10000 nM.
On to `Cc1cc(C)n2c1C=C1C=CC(CCC(=O)NCC(=O)N3CCC[C@H]3C(=O)N3CCC[C@H]3C(=O)N3CCC[C@H]3C(=O)N3CCC[C@H]3C(=O)N3CCC[C@H]3C(=O)N3CCC[C@H]3C(=O)NCC(=O)NCCCC[C@H]3C(=O)NCC(=O)N[C@@H](CC(C)C)C(=O)N[C@@H](CCCNC(=N)N)C(=O)NCC(=O)N[C@@H](CC(=O)O)C(=O)N[C@@H](CC(C)C)C(=O)N4CCC[C@@H]4C(=O)N3C)=[N+]1[B-]2(F)F` [Compound 9f, 9-G(P)6G-BDPFL] (I: {BODIPY(FL)}-GPPPPPPG / II: cyclo(RGDL[dP][NMeK]GL); amide I:C-II:6), for which the “binding activity to αvβ8 (in words)” value in experiment [1] (comparison with compound 9, comment on Table 3) is given as “reduced binding activity”. The IC50 in experiment [3] (setting [8]) is greater than 10000 nM.
In the case of `Cc1cc(C)n2c1C=C1C=CC(CCC(=O)NCC(=O)N3CCC[C@H]3C(=O)N3CCC[C@H]3C(=O)N3CCC[C@H]3C(=O)NCC(=O)NCCCC[C@H]3C(=O)NCC(=O)N[C@@H](CC(C)C)C(=O)N[C@@H](CCCNC(=N)N)C(=O)NCC(=O)N[C@@H](CC(=O)O)C(=O)N[C@@H](CC(C)C)C(=O)N4CCC[C@@H]4C(=O)N3C)=[N+]1[B-]2(F)F` [Compound 9e, 9-G(P)3G-BDPFL] (I: cyclo(RGDL[dP][NMeK]GL) / II: {BODIPY(FL)}-GPPPG; amide I:6-II:C), the IC50 was 247 nM in experiment [2] (Table 3, BDPFL-labelled compounds and comparatives, read-out: αvβ6, IC50); greater than 10000 nM in experiment [3] (setting [8]).
